Columns and labels:
RS = RS test
Experimental: (§1) This example provides results of four tests that were conducted on certain illustrative non-natural amino acids as an aid for predicting their properties for incorporation into non-natural amino acid polypeptides.

[1] = Oxime stability pH 4-8 (testing non-natural amino acids); format: physicochemical
Experimental: as §1

Oxime Stability pH 4-8 [1] | Compound | RS test (RS)
 | CC(=O)c1ccc(C[C@H](N)C(=O)O)cc1 | √
 | CC(=O)N/N=C/c1ccc(C[C@H](N)C(=O)O)cc1 | √
— — | N[C@@H](Cc1ccc2c(c1)NC(=O)C2=O)C(=O)O | 
 | CC(=O)CC(=O)c1ccc(C[C@H](N)C(=O)O)cc1 | Meta- bolized

Reference: patent US8846876B2, “Compositions containing, methods involving, and uses of non-natural amino acids and polypeptides” (Abrx, Inc., priority 2004, dated 2014)
